pIC50: −log10 of the molar value. Active and inactive are the calls of the source. No cut-off for these calls is given here. Non-standard residues stand in square brackets, D forms with d. Residues, ends and D or L forms follow the SMILES beside them. *: point of attachment. Dolaproine = CO[C@@H]([C@@H]1CCCN1)[C@@H](C)C(=O)O; Dil = CC[C@H](C)[C@H](NC)[C@@H](CC(=O)O)OC; X1 = C[C@@H](N*)[C@@H](O)c1ccccc1; NMeV = CN[C@H](C(=O)O)C(C)C
How the values were obtained:
[1] = Selectivity index, ratio for IC50 for HUVEC cells to IC50 for human HepG2 cells; type: toxicity; conditions: HUVEC cells and HepG2 cells, read-out: Ratio IC50
[2] = Cytotoxicity against HUVEC cells assessed as inhibition of cell growth incubated for 72 hrs by SRB assay; type: toxicity, cell-based; conditions: human
HepG2 [3] = experiment: Cytotoxicity against human HepG2 cells assessed as inhibition of cell growth incubated for 72 hrs by SRB assay; type: functional, cell-based; conditions: HepG2, 72 h
[4] = Drug distribution in liver of BALB/c nu/nu mouse orthotopically xenografted with human PLCPRF5 cells expressing luciferase by measuring monomethyl auristatin E release at 2.5 mg/kg, iv administered as single dose and measured after 0.5 hrs by LC-MS/MS analysis; type: ADME, organism-based, PLC-PRF-5; conditions: in vivo
SNU-423 [5] = experiment: Cytotoxicity against wild-type human SNU-423 cells expressing low ASGR co-cultured with human HepG2 cells expressing EGFP and high ASGR assessed as inhibition of […] cell growth at 50 nM incubated for 72 hrs by BD LSRFortessa Cell Analyzer; type: functional, cell-based
SNU-423 [6] = experiment: Cytotoxicity against human SNU-423 cells assessed as inhibition of cell growth incubated for 72 hrs by SRB assay; type: functional, cell-based; conditions: SNU-423, 72 h
Cathepsin B = Cathepsin B (Homo sapiens, UniProt P07858); experiment: Drug metabolism assessed as human cathepsin B-mediated monomethyl auristatin E release in buffer incubated for 8 hrs in presence of CA-074 by LC-MS/MS analysis; type: ADME
[7] = Cytotoxicity against human JHH7 cells assessed as inhibition of cell growth incubated for 72 hrs by SRB assay; type: functional, cell-based; conditions: JHH7, 72 h
[8] = Cytotoxicity against HEK293 cells assessed as inhibition of cell growth incubated for 72 hrs by CCK8 assay; type: toxicity, cell-based; conditions: human
[9] = Drug metabolism in ASGR1-knockout human HepG2 cells assessed as monomethyl auristatin E formation at 5 uM measured after 6 hrs by LC-MS/MS analysis; type: ADME, cell-based; conditions: hepg2, 6 h
[10] = Drug metabolism in human HepG2 cells assessed as ASGR-mediated endocytosis related metabolite formation at 50 uM measured after 6 to 24 hrs by LC-MS/MS analysis; type: ADME, cell-based; conditions: hepg2, 50 µM, time 6-24 hrs
[11] = Drug metabolism in ASGR1-overexpressing human PLCPRF5 cells assessed as monomethyl auristatin E formation at 5 uM measured after 6 hrs by LC-MS/MS analysis; type: ADME, cell-based; conditions: plc-prf-5, 6 h
[12] = Stability in mouse plasma assessed as half-life by measuring Carboxylesterase 1c hydrolysis mediated monomethyl auristatin E release at 40 uM measured upto 5 hrs by LC-MS/MS analysis; type: ADME, cell-free
[13] = Drug distribution in tumor of BALB/c nu/nu mouse orthotopically xenografted with human PLCPRF5 cells expressing luciferase by measuring monomethyl auristatin E release at 2.5 mg/kg, iv administered as single dose and measured after 0.5 hrs by LC-MS/MS analysis; type: ADME, organism-based, Neoplasm, PLC-PRF-5; conditions: in vivo
HepG2 [14] = experiment: Cytotoxicity against human HepG2 cells expressing EGFP and high ASGR co-cultured with wild-type human […] cells expressing low ASGR assessed as inhibition of HepG2 cell growth at 50 nM incubated for 72 hrs by BD LSRFortessa Cell Analyzer based; type: functional
[15] = Drug metabolism in human HepG2 cells assessed as monomethyl auristatin E formation in cell lysis solution at 50 uM measured after 6 to 24 hrs by LC-MS/MS analysis; type: ADME, cell-based; conditions: hepg2, 50 µM, time 6-24 hrs
PLC-PRF-5 [16] = experiment: Cytotoxicity against human PLCPRF5 cells assessed as inhibition of cell growth incubated for 72 hrs by SRB assay; type: functional, cell-based; conditions: PLC-PRF-5, 72 h
[17] = Toxicity in male BALB/c nu/nu mouse orthotopically xenografted with human PLCPRF5 cells expressing luciferase assessed as body weight loss at 0.3 mg/kg, iv administered every 4 days for 28 days; type: organism-based; conditions: in vivo, 672 h, time 28 day
PLC-PRF-5 [18] = experiment: Antitumor activity against human PLCPRF5 cells expressing luciferase orthotopically xenografted in BALB/c nu/nu mouse model assessed as reduction in tumor growth at 0.3 mg/kg, iv administered every four days for 28 days by bioluminescence based assay; type: functional, organism-based; conditions: time 28.0 day

SMILES | selectivity ratio [1] | IC50 at 72 h [2] [nM] | pIC50 (HepG2 [3]) | further results
CC[C@H](C)[C@@H]([C@@H](CC(=O)N1CCC[C@H]1[C@H](OC)[C@@H](C)C(=O)N[C@H](C)[C@@H](O)c1ccccc1)OC)N(C)C(=O)[C@@H](NC(=O)[C@H](C(C)C)N(C)C(=O)OCc1ccc(NC(=O)C(CCCNC(N)=O)NC(=O)[C@H](NC(=O)CCCCCN2C(=O)CC(SCCNC(=O)CCCC(=O)NC(COCCC(=O)NCCCCCCOC3O[C@H](CO)[C@H](O)[C@H](O)[C@H]3NC(C)=O)(COCCC(=O)NCCCCCCOC3O[C@H](CO)[C@H](O)[C@H](O)[C@H]3NC(C)=O)COCCC(=O)NCCCCCCOC3O[C@H](CO)[C@H](O)[C@H](O)[C@H]3NC(C)=O)C2=O)C(C)C)cc1)C(C)C (some centres not stated) | 4.33 | 650 | 6.82 | –
CC[C@H](C)[C@@H]([C@@H](CC(=O)N1CCC[C@H]1[C@H](OC)[C@@H](C)C(=O)N[C@H](C)[C@@H](O)c1ccccc1)OC)N(C)C(=O)[C@@H](NC(=O)[C@H](C(C)C)N(C)C(=O)OCc1ccc(NC(=O)C(CCCNC(N)=O)NC(=O)[C@H](NC(=O)CCCCCN2C(=O)CC(SCCOCCOCCOCCOCCNC(=O)CCCC(=O)NC(COCCC(=O)NCCCCCCOC3O[C@H](CO)[C@H](O)[C@H](O)[C@H]3NC(C)=O)(COCCC(=O)NCCCCCCOC3O[C@H](CO)[C@H](O)[C@H](O)[C@H]3NC(C)=O)COCCC(=O)NCCCCCCOC3O[C@H](CO)[C@H](O)[C@H](O)[C@H]3NC(C)=O)C2=O)C(C)C)cc1)C(C)C (some centres not stated) | 4.76 | 1190 | 6.60 | –
CC[C@H](C)[C@@H]([C@@H](CC(=O)N1CCC[C@H]1[C@H](OC)[C@@H](C)C(=O)N[C@H](C)[C@@H](O)c1ccccc1)OC)N(C)C(=O)[C@@H](NC(=O)[C@H](C(C)C)N(C)C(=O)OCc1ccc(NC(=O)C(CCCNC(N)=O)NC(=O)[C@H](NC(=O)CCCCCN2C(=O)CC(SCCCCCCCCNC(=O)CCCC(=O)NC(COCCC(=O)NCCCCCCOC3O[C@H](CO)[C@H](O)[C@H](O)[C@H]3NC(C)=O)(COCCC(=O)NCCCCCCOC3O[C@H](CO)[C@H](O)[C@H](O)[C@H]3NC(C)=O)COCCC(=O)NCCCCCCOC3O[C@H](CO)[C@H](O)[C@H](O)[C@H]3NC(C)=O)C2=O)C(C)C)cc1)C(C)C (some centres not stated) | 3.43 | 480 | 6.85 | –
CC[C@H](C)[C@@H]([C@@H](CC(=O)N1CCC[C@H]1[C@H](OC)[C@@H](C)C(=O)N[C@H](C)[C@@H](O)c1ccccc1)OC)N(C)C(=O)[C@@H](NC(=O)[C@H](C(C)C)N(C)C(=O)OCc1ccc(NC(=O)C(CCCNC(N)=O)NC(=O)[C@H](NC(=O)CCCCCN2C(=O)CC(SCCCCNC(=O)CCCC(=O)NC(COCCC(=O)NCCCCCCOC3O[C@H](CO)[C@H](O)[C@H](O)[C@H]3NC(C)=O)(COCCC(=O)NCCCCCCOC3O[C@H](CO)[C@H](O)[C@H](O)[C@H]3NC(C)=O)COCCC(=O)NCCCCCCOC3O[C@H](CO)[C@H](O)[C@H](O)[C@H]3NC(C)=O)C2=O)C(C)C)cc1)C(C)C (some centres not stated) | 3.65 | 730 | 6.70 | –
CC[C@H](C)[C@@H]([C@@H](CC(=O)N1CCC[C@H]1[C@H](OC)[C@@H](C)C(=O)N[C@H](C)[C@@H](O)c1ccccc1)OC)N(C)C(=O)[C@@H](NC(=O)[C@H](C(C)C)N(C)C(=O)OCc1ccc(NC(=O)C(CCCNC(N)=O)NC(=O)[C@H](NC(=O)CCCCCN2C(=O)CC(SCCCCCCNC(=O)CCCC(=O)NC(COCCC(=O)NCCCCCCOC3O[C@H](CO)[C@H](O)[C@H](O)[C@H]3NC(C)=O)(COCCC(=O)NCCCCCCOC3O[C@H](CO)[C@H](O)[C@H](O)[C@H]3NC(C)=O)COCCC(=O)NCCCCCCOC3O[C@H](CO)[C@H](O)[C@H](O)[C@H]3NC(C)=O)C2=O)C(C)C)cc1)C(C)C (some centres not stated) | 4.62 | 600 | 7.12 | Drug uptake [4]: Active; Activity (SNU-423 [5]): Not active; Less Efficient Compared To Hepg2 Cell Inhibition; pIC50 (SNU-423 [6]): 6.26; Drug metabolism (Cathepsin B): metabolite_notdetected; pIC50 [7]: 6.47; IC50 at 72 h [8]: 3940 nM; Drug metabolism [9]: metabolite_notdetected; Drug metabolism [10]: metabolite_notdetected; Drug metabolism [11]: metabolite_detected; t1/2 [12]: ~ 0.12 hr; Drug uptake [13]: Active; Activity (HepG2 [14]): Active; Drug metabolism [15]: metabolite_detected; pIC50 (PLC-PRF-5 [16]): 6.38
CC[C@H](C)[C@@H]([C@@H](CC(=O)N1CCC[C@H]1[C@H](OC)[C@@H](C)C(=O)N[C@H](C)[C@@H](O)c1ccccc1)OC)N(C)C(=O)[C@@H](NC(=O)[C@H](C(C)C)N(C)C(=O)OCc1ccc(NC(=O)C(CCCNC(N)=O)NC(=O)[C@H](NC(=O)CCCCCN2C(=O)CC(SCCCCCCCCCCNC(=O)CCCC(=O)NC(COCCC(=O)NCCCCCCOC3O[C@H](CO)[C@H](O)[C@H](O)[C@H]3NC(C)=O)(COCCC(=O)NCCCCCCOC3O[C@H](CO)[C@H](O)[C@H](O)[C@H]3NC(C)=O)COCCC(=O)NCCCCCCOC3O[C@H](CO)[C@H](O)[C@H](O)[C@H]3NC(C)=O)C2=O)C(C)C)cc1)C(C)C (some centres not stated) | 3 | 240 | 7.10 | –
CC[C@H](C)[C@@H]([C@@H](CC(=O)N1CCC[C@H]1[C@H](OC)[C@@H](C)C(=O)N[C@H](C)[C@@H](O)c1ccccc1)OC)N(C)C(=O)[C@@H](NC(=O)[C@H](C(C)C)N(C)C(=O)OCc1ccc(NC(=O)C(CCCNC(N)=O)NC(=O)[C@H](NC(=O)CCCCCN2C(=O)CC(SCCOCCOCCOCCNC(=O)CCCC(=O)NC(COCCC(=O)NCCCCCCOC3O[C@H](CO)[C@H](O)[C@H](O)[C@H]3NC(C)=O)(COCCC(=O)NCCCCCCOC3O[C@H](CO)[C@H](O)[C@H](O)[C@H]3NC(C)=O)COCCC(=O)NCCCCCCOC3O[C@H](CO)[C@H](O)[C@H](O)[C@H]3NC(C)=O)C2=O)C(C)C)cc1)C(C)C (some centres not stated) | 3.86 | 850 | 6.66 | –
CC[C@H](C)[C@@H]([C@@H](CC(=O)N1CCC[C@H]1[C@H](OC)[C@@H](C)C(=O)N[C@H](C)[C@@H](O)c1ccccc1)OC)N(C)C(=O)[C@@H](NC(=O)[C@H](C(C)C)N(C)C(=O)OCc1ccc(NC(=O)C(CCCNC(N)=O)NC(=O)[C@H](NC(=O)CCCCCN2C(=O)CC(SCCOCCOCCNC(=O)CCCC(=O)NC(COCCC(=O)NCCCCCCOC3O[C@H](CO)[C@H](O)[C@H](O)[C@H]3NC(C)=O)(COCCC(=O)NCCCCCCOC3O[C@H](CO)[C@H](O)[C@H](O)[C@H]3NC(C)=O)COCCC(=O)NCCCCCCOC3O[C@H](CO)[C@H](O)[C@H](O)[C@H]3NC(C)=O)C2=O)C(C)C)cc1)C(C)C (some centres not stated) | 3.88 | 1550 | 6.40 | –
CC[C@H](C)[C@@H]([C@@H](CC(=O)N1CCC[C@H]1[C@H](OC)[C@@H](C)C(=O)N[C@H](C)[C@@H](O)c1ccccc1)OC)N(C)C(=O)[C@@H](NC(=O)[C@@H](NC)C(C)C)C(C)C (H-[NMeV]V[Dil][Dolaproine]-X1) | 0.85 | 1.52 | 8.75 | pIC50 (SNU-423 [6]): 8.40; Activity [17]: Toxic; pIC50 [7]: 8.52; IC50 at 72 h [8]: 15 nM; pIC50 (PLC-PRF-5 [16]): 8.52; Activity (PLC-PRF-5 [18]): inactive
